Measurements reported in patent US7763617B2, “Pyrazolopyridine-4-yl pyridazinone derivatives and addition salts thereof, and PDE inhibitors comprising the same derivatives or salts as active ingredient” (Kyorin Pharmaceutical Co., Ltd., priority 2005, dated 2010).

Assays:
PDE4Bcat = target: T1, PDE4Bcat (Homo sapiens, UniProt Q07343); experiment: Inhibition of phosphodiesterase activity, [3H]-cAMP hydrolysis, recombinant PDE4Bcat; assay type: biochemical; settings: cAMP 2 μmol/L, read-out: IC50(μmol/L) PDE4
T1 construct: catalytic domain (indicated as “cat,” hereinafter), PDE4Bcat; made in house; host or cells: Sf9 insect cells (baculovirus, Bac-to-Bac)
T1 sequence (Q07343 330-659 limits assumed): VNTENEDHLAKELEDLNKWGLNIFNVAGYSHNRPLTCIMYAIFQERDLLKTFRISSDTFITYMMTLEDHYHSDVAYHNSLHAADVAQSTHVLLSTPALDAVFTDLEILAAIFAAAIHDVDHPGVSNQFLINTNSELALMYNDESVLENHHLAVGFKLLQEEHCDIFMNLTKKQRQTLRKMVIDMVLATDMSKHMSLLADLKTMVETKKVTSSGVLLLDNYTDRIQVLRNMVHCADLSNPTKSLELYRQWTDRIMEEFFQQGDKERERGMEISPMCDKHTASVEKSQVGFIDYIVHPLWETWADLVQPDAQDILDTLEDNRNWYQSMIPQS
Method: (§1) RT-PCR was performed to isolate cDNA fragments of PDE3A catalytic domain (indicated as “cat,” hereinafter), PDE4Bcat, PDE5Acat and PDE10A1 from human RNA. Using Gateway system (Invitrogen) and Bac-to-Bac (registered trademark) Baculovirus Expression system (Invitrogen), the isolated cDNA fragments were transfected into Sf9 insect cells for expression of the PDE proteins. The recombinant PDE3Acat, PDE4Bcat, PDE5Acat and PDE10A1 proteins were isolated from culture supernatant or cell extracts of Sf9 cells expressed high levels of these proteins by ion-exchange chromatography and used for the following experiments.
(§2) 4 mmol/L solution of each test compound was serially diluted 4-fold with 15% DMSO solution to prepare the solutions with concentrations of 15 nmol/L to 4 mmol/L (final concentrations=1.5 nmol/L-400 μmol/L). 10 μL of each test compound solution was added to each well of 96 plate with 10 μL of [^3H]-cAMP or [^3H]-cGMP solution, diluted with a buffer (40 mmol/L Tris-HCl (pH 7.4), 10 mmol/L MgCl2) to the concentration shown in Table 20 and 40 μL of each of the human recombinant PDE proteins in units shown in Table 20. The plate was incubated at 30° C. for 20 min, and then at 65° C. for 2 min. Subsequently, 25 μL of 1 mg/mL 5′-nucleotidase (Crotalus atrox venom, Sigma) was added to each well and the plate was incubated at 30° C. for 10 min. 200 μL of Dowex solution (300 mg/mL Dowex 1×8-400 (Sigma Aldrich), 33% ethanol) was then added to each well and the plate was shaken at 4° C. for 20 min. Subsequently, 200 μL of MicroScint 20 (Packard) was added to each well and the radioactivity of each sample was measured by a scintillation counter (Topcount, Packard) IC50 was calculated by GraphPad Prism v3.03 (GraphPad Software).

[1] = test system: histamine-induced bronchoconstriction; experiment: Histamine-induced bronchoconstriction in guinea pigs; assay type: in vivo, guinea pig; settings: Cavia porcellus, iv, 0.5 min, 30 seconds after administration, histamine 12.5 μg/kg i.v.; for inhibition in vivo at 0.1 mg/kg: values in brackets: test compound 0.1 mg/kg, i.v.; for inhibition in vivo at 1 mg/kg: test compound 1 mg/kg i.v.
Method: Guinea pigs were anesthetized with pentobarbital (30 mg/kg, i.p.). A cannula for IV administeration, a cannula for collecting blood and measurement of blood pressure and a trachea cannula were inserted into the left exterior jugular vein, right interior carotid artery and trachea, respectively. The animals were placed under artificial respiration at 60 times/min and 10 mL/kg/stroke. The airflow through the branch of the tracheal cannula was measured by a bronchospasm transducer (Ugo-Basile) and recorded on a computer via Power Lab (ADInstruments Japan). The animals were immobilized with gallamine (10 mg/kg, i.v.), then administered histamine at 10-minute intervals (12.5 μg/kg, i.v.). […] To examine the inhibitory activity of test compound, the histamine-induced bronchoconstriction was measured after 30 seconds of drug administration. The bronchoconstriction was recorded as the change of the airflow: The results were shown by percentages of the maximum histamine-induced bronchoconstriction. Each test compound was prepared as a 10 mg/mL solution in DMSO. Gallamine was prepared as a 10 mg/mL solution in physiological saline. Histamine was prepared as a 1 mg/mL solution in physiological saline, which was diluted with physiological saline to 62.5 μg/mL for use.

[2] = target: T2, PDE3A catalytic domain (PDE3Acat) (Homo sapiens, UniProt Q14432); experiment: Inhibition of phosphodiesterase activity, [3H]-cAMP hydrolysis, recombinant PDE3Acat; assay type: biochemical; settings: human recombinant PDE3Acat, cAMP 2 μmol/L; read-out: IC50(μmol/L) PDE3
T2 construct: cDNA fragments of PDE3A catalytic domain (indicated as “cat,” hereinafter); made in house; host or cells: Sf9 insect cells (baculovirus, Bac-to-Bac)
T2 sequence (Q14432 674-1093 limits assumed): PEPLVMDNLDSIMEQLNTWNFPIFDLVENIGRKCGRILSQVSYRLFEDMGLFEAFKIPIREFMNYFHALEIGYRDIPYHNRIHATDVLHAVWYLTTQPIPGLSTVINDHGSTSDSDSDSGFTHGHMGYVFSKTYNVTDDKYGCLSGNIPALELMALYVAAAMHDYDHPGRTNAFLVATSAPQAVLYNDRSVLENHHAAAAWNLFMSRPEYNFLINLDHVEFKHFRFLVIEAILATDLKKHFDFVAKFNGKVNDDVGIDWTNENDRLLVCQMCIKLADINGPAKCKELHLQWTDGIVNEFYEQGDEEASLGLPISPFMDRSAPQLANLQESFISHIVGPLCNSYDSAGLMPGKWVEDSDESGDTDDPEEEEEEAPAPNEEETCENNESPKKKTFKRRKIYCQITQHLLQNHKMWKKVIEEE
Method: as §1, §2

Row | Structure (SMILES) | IC50 (PDE4Bcat) [µmol/L] | inhibition in vivo at 0.1 mg/kg [1] [%] | IC50 [2] [µmol/L] | inhibition in vivo at 1 mg/kg [1] [%]
1 | CCc1cc2c(C3=NNC(=O)CC3C)ccc(NCCO)n2n1 (stereo not drawn) [Example 247, 6-[2-ethyl-7-(2-hydroxyethylamino)-pyrazolo[1,5-a]pyridine-4-yl]-4,5-dihydro-5-methyl-3-(2H)-pyridazinone] | 1 to 10 | 70 to 80 | 1 to 10 | 
2 | CCc1nn2c(S(C)(=O)=O)ccc(C3=NNC(=O)CC3C)c2c1O (stereo not drawn) [Example 252] | 1 to 10 |  | 1 to 10 | 
3 | COc1ccc(C2=NNC(=O)CC2C)c2cc(C(C)=O)nn12 (stereo not drawn) [Example 241, 6-(2-acetyl-7-methoxy-pyrazolo[1,5-a]pyridine-4-yl)-4,5-dihydro-5-methyl-3-(2H)-pyridazinone] | < 1 | ≥ 90 | 1 to 10 | 
4 | CCCc1cc2c(C3=NNC(=O)CC3C)ccc(OC)n2n1 (stereo not drawn) [Example 217] | 0.1 to 1 | ≥ 90 | 1 to 10 | 
5 | CCc1nn2c([S+](C)[O-])ccc(C3=NNC(=O)CC3C)c2c1O (stereo not drawn) [Example 250] | 0.1 to 1 | ≥ 90 | 1 to 10 | 
6 | COc1ccc(C2=NNC(=O)CC2C)c2cc(C)nn12 (stereo not drawn) [Example 215] | 0.1 to 1 | 80 to 90 | 1 to 10 | 
7 | CCc1cc2c(C3=NNC(=O)CC3C)ccc(NC(C)=O)n2n1 (stereo not drawn) [Example 228] | > 10 |  | 1 to 10 | 
8 | COc1ccc(C2=NNC(=O)CC2C)c2cc(CF)nn12 (stereo not drawn) [Example 236, 6-(2-fluoromethyl-7-methoxy-pyrazolo[1,5-a]pyridine-4-yl)-4,5-dihydro-5-methyl-3-(2H)-pyridazinone] | 0.1 to 1 |  | 1 to 10 | 
9 | COc1ccc(-c2nn(C)c(=O)cc2C)c2cc(C(C)C)nn12 [Example 297] | < 1 |  | > 10 | 
10 | CCc1cc2c(C3=NNC(=O)CC3C)ccc([S+](C)[O-])n2n1 (stereo not drawn) [Example 249, 6-(2-ethyl-7-methylsulfinyl-pyrazolo[1,5-a]pyridine-4-yl)-4,5-dihydro-5-methyl-3-(2H)-pyridazinone] | < 1 | ≥ 90 | 1 to 10 | 
11 | CCc1cc2c(C3=NNC(=O)CC3C)ccc(N3CCOCC3)n2n1 (stereo not drawn) [Example 226] | > 10 |  | 1 to 10 | 
12 | COc1ccc(C2=NNC(=O)CC2C)c2ccnn12 (stereo not drawn) [Example 214] | 1 to 10 | 80 to 90 | < 1 | 
13 | COc1ccc(-c2ccc(=O)n(Cc3ccccn3)n2)c2cc(C(C)C)nn12 [Example 274] | 0.1 to 1 |  | > 10 | 
14 | COc1ccc(-c2ccc(=O)[nH]n2)c2cc(C(F)(F)F)nn12 [Example 302, 6-(2-trifluoromethyl-7-methoxy-pyrazolo[1,5-a]pyridine-4-yl)-3-(2H)-pyridazinone] | 0.1 to 1 | ≥ 90 | 1 to 10 | 
15 | COc1ccc(C2=NNC(=O)CC2C)c2cc(C(F)F)nn12 (stereo not drawn) [Example 222] | < 1 | 70 to 80 | 1 to 10 | 
16 | CCc1cc2c(C3=NNC(=O)CC3C)ccc(-c3ccccc3)n2n1 (stereo not drawn) [Example 229] | 1 to 10 |  | 1 to 10 | 
17 | CCc1cc2c(C3=NNC(=O)CC3C)ccc(OC(C)C)n2n1 (stereo not drawn) [Example 245, 6-(7-isopropoxy-2-ethyl-pyrazolo[1,5-a]pyridine-4-yl)-4,5-dihydro-5-methyl-3-(2H)-pyridazinone] | > 10 | ≥ 90 | 1 to 10 | 
18 | COc1ccc(-c2n[nH]c(=O)cc2C)c2c(F)c(C(C)C)nn12 [Example 279, 6-(3-fluoro-7-methoxy-2-isopropyl-pyrazolo[1,5-a]pyridine-4-yl)-5-methyl-3-(2H)-pyridazinone] | 0.1 to 1 |  | > 10 | 
19 | CCc1cc2c(C3=NNC(=O)CC3C)ccc(C(C)=O)n2n1 (stereo not drawn) [Example 235, 6-(7-acetyl-2-ethyl-pyrazolo[1,5-a]pyridine-4-yl)-4,5-dihydro-5-methyl-3-(2H)-pyridazinone] |  | ≥ 90 |  | 

Row | Structure (SMILES) | IC50 (PDE4Bcat) [µmol/L] | inhibition in vivo at 0.1 mg/kg [1] [%] | IC50 [2] [µmol/L] | inhibition in vivo at 1 mg/kg [1] [%]
20 | CCc1nn2cc(Cl)cc(C3=NNC(=O)CC3C)c2c1Cl (stereo not drawn) [Example 203] | 0.1 to 1 |  | > 10 | 70 to 80
21 | CCc1nn2c(OC)ccc(C3=NNC(=O)CC3C)c2c1Cl (stereo not drawn) [Example 213] | 0.1 to 1 |  | > 10 | 70 to 80
22 | COc1ccc(C2=NNC(=O)CC2)c2cc(C(F)(F)F)nn12 [Example 209, 6-(7-methoxy-2-trifluoromethyl-pyrazolo[1,5-a]pyridine-4-yl)-4,5-dihydro-3-(2H)-pyridazinone] | 0.1 to 1 | 80 to 90 | > 10 | 
23 | COc1ccc(C2=NNC(=O)CC2C)c2cc(SC)nn12 (stereo not drawn) [Example 219] | 0.1 to 1 | ≥ 90 |  | 
24 | CCOc1ccc(C2=NNC(=O)CC2C)c2cc(CC)nn12 (stereo not drawn) [Example 244, 6-(7-ethoxy-2-ethyl-pyrazolo[1,5-a]pyridine-4-yl)-4,5-dihydro-5-methyl-3-(2H)-pyridazinone] | 1 to 10 |  | 1 to 10 | 
25 | COc1ccc(C2=NNC(=O)CC2C)c2cc(C(C)F)nn12 (stereo not drawn) [Example 240, 6-[2-(1-fluoroethyl)-7-methoxy-pyrazolo[1,5-a]pyridine-4-yl]-4,5-dihydro-5-methyl-3-(2H)-pyridazinone] | < 1 | ≥ 90 | 1 to 10 | 
26 | CCc1cc2c(C3=NNC(=O)CC3C)ccc(SC)n2n1 (stereo not drawn) [Example 223] | 0.1 to 1 | ≥ 90 | 1 to 10 | 
27 | COc1ccc(-c2cc(C)c(=O)n(Cc3cccnc3)n2)c2cc(C(C)C)nn12 [Example 299] | < 1 |  | > 10 | 
28 | COc1ccc(-c2n[nH]c(=O)cc2C)c2cc(C(F)(F)F)nn12 [Example 303] | 1 to 10 |  | > 10 | 
29 | COc1ccc(C2=NNC(=O)CC2C)c2cc(CO)nn12 (stereo not drawn) [Example 221] | 1 to 10 |  | 1 to 10 | 
30 | CCc1cc2c(C3=NN(Cc4cccnc4)C(=O)CC3C)cc(F)cn2n1 (stereo not drawn) [Example 287, 6-(2-ethyl-6-fluoro-pyrazolo[1,5-a]pyridine-4-yl)-4,5-dihydro-5-methyl-2-(pyridine-3-ylmethyl)-3-(2H)-pyridazinone] | 1 to 10 |  | > 10 | 
31 | C=Cc1cc2c(C3=NNC(=O)CC3C)ccc(OC)n2n1 (stereo not drawn) [Example 239, 6-(7-methoxy-2-vinyl-pyrazolo[1,5-a]pyridine-4-yl)-4,5-dihydro-5-methyl-3-(2H)-pyridazinone] |  | ≥ 90 |  | 
32 | COc1ccc(-c2ccc(=O)n(Cc3ccncc3)n2)c2cc(C(C)C)nn12 [Example 275] | 1 to 10 |  | > 10 | 
33 | CCOC(=O)c1ccc(C2=NNC(=O)CC2C)c2cc(CC)nn12 (stereo not drawn) [Example 204] | 1 to 10 |  | 1 to 10 | 
34 | CCc1cc2c(C3=NNC(=O)CC3C)ccc(N(C)C)n2n1 (stereo not drawn) [Example 224] | 0.1 to 1 |  | 1 to 10 | 
35 | CCC1CC(=O)NN=C1c1ccc(OC)n2nc(C(F)(F)F)cc12 (stereo not drawn) [Example 212] | < 1 |  | > 10 | 
36 | COc1ccc(C2=NNC(=O)CC2C)c2cc(C(C)O)nn12 (stereo not drawn) [Example 238, 6-[2-(1-hydroxyethyl)-7-methoxy-pyrazolo[1,5-a]pyridine-4-yl]-4,5-dihydro-5-methyl-3-(2H)-pyridazinone] | < 1 |  | 1 to 10 | 
37 | CCc1cc2c(C3=NNC(=O)CC3C)ccc(S(C)(=O)=O)n2n1 (stereo not drawn) [Example 251, 6-(2-ethyl-7-methylsulfonyl-pyrazolo[1,5-a]pyridine-4-yl)-4,5-dihydro-5-methyl-3-(2H)-pyridazinone] | 1 to 10 |  | 1 to 10 | 
